These results are taken from PubChem BioAssay (NCI).

Experiment in all cases: growth of human tumour cells (NCI), 48 h
Assay [1] deals with CAKI-1 renal.
For assay [2], the system named is COLO 205 colon.
For assay [3], the system named is DU-145 prostate.
Assay [4] concerns HCC-2998 colon.
The test system of assay [5] is HS 578T breast.
The test system of assay [6] is IGROV1 ovarian.
Assay [7] concerns M14 melanoma.
Assay [8] has as its system MALME-3M melanoma.
The test system of assay [9] is OVCAR-8 ovarian.
The subject of assay [10] is SF-539 CNS.
The subject of assay [11] is SK-MEL-28 melanoma.
For assay [12], the system named is SK-MEL-5 melanoma.
In assay [13] the test system is SK-OV-3 ovarian.
Assay [14] relates to SR leukemia.
The subject of assay [15] is T-47D breast.
The test system of assay [16] is TK-10 renal.
The subject of assay [17] is UACC-257 melanoma.
In assay [18] the test system is RXF 393 renal.
The test system of assay [19] is UACC-62 melanoma.

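Dose response: 5 concentrations. Exposure: 48 h. Format: 96-well plates. Endpoint: linear interpolation; highest concentration if not reached. At the TGI there is no net growth.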 Bounds are passed on as bounds.

On to `C=C1CN=C(Nc2ccc(Cl)cc2)S1`, for which the TGI in assay [1] is more than 10 µM; in assay [2], more than 100 µM; in assay [3], more than 100 µM; in [4], more than 100 µM; in assay [5], more than 100 µM; in assay [6] it was more than 100 µM. The TGI in [7], in [8], in assay [9], in assay [10], in assay [11] and in assay [12] was more than 100 µM throughout. The TGI in assay [13], in assay [14], in assay [15], in assay [16] and in assay [17] was more than 100 µM in each case.
`CN1CCC2(c3ccccc3)CC(=O)/C(=C/c3ccc(Cl)c(Cl)c3)C1C2` (configuration not stated): the TGI in [1] was 13.8 µM; in assay [2] it was 4.2 µM; in assay [3], 11.9 µM; in assay [5] it was more than 45.7 µM; in assay [6], 4.19 µM; in assay [7], 8.59 µM. In addition, the TGI was 24.4 µM in assay [8]; 4.64 µM in [9]; 7.07 µM in [18]; 4.35 µM in assay [10]; 5.59 µM in assay [11]; 8.37 µM in assay [12]. The TGI in [13] is 13.6 µM; in assay [14] it was 4.74 µM; in assay [15], more than 41.5 µM; in assay [16] it was 11.7 µM; in [17], 23.3 µM; in assay [19], 3 µM.
On to `CCc1n[nH]c(=O)n1CC`, for which the TGI in [1], in [2], in [3], in assay [4], in assay [5] and in assay [6] was more than 100 µM in each case. For the same compound, the TGI in assay [8], in assay [9], in [10], in assay [11], in [12] and in [13] was more than 100 µM throughout. The TGI in assay [14], in [15], in assay [16], in assay [17] and in [19] was more than 100 µM each time.
Regarding `CC(=O)NS(=O)(=O)c1ccc(NCc2cccc3c(=O)c4ccc(Cl)cc4oc23)cc1`, the TGI in assay [1] was 69.6 µM; in [2] it was more than 100 µM; in assay [3] it was more than 100 µM; in assay [4], more than 100 µM; in assay [5] it was 97.7 µM; in [6] it was more than 100 µM. For the same compound, the TGI was more than 100 µM in assay [7]; more than 93.5 µM in [8]; more than 49.1 µM in [9]; 78.9 µM in assay [18]; more than 65.3 µM in [10]; more than 100 µM in assay [11]. Moreover, the TGI in assay [12], in assay [13], in assay [15], in [16], in [17] and in assay [19] was more than 100 µM throughout.
As to `O=C(Sc1c(-c2ccccc2)c(=O)n(-c2ccccc2)c(=S)n1-c1ccccc1)c1ccccc1`, the TGI in [1], in assay [2], in assay [3], in assay [5], in [6] and in assay [7] was more than 100 µM each time. Further, the TGI in assay [8], in assay [9], in assay [11], in assay [12], in assay [13] and in assay [14] was more than 100 µM each time. In addition, the TGI in assay [15], in assay [16], in assay [17] and in assay [19] was more than 100 µM each time.
With `COc1ccc(-c2sc(Br)c3c2C(=O)C2OC(=O)NC32)cc1OC` (configuration not stated), the TGI in assay [1], in [2], in assay [3], in assay [5], in [6] and in assay [7] was more than 100 µM throughout. In addition, the TGI in assay [8], in assay [9], in assay [18], in assay [10], in assay [12] and in assay [13] was more than 100 µM in each case. The TGI in assay [14], in assay [15], in assay [16], in [17] and in assay [19] was more than 100 µM each time.
Regarding `CC1(C)CC[C@]2(C(=O)O)CC[C@]3(C)C(=CCC4=C5C[C@H](O)[C@H](O)[C@@](C)(CO)[C@@]5(C)CC[C@]43C)[C@@H]2C1`, the TGI in assay [1] is 87.2 µM; in assay [2] it was 30 µM; in [3], more than 100 µM; in assay [4] it was 64.1 µM; in assay [5], more than 100 µM; in assay [6], more than 100 µM. Besides, the TGI in [7] was more than 100 µM; in assay [8] it was more than 100 µM; in assay [9], more than 100 µM; in assay [10] it was more than 100 µM; in [11] it was more than 100 µM; in assay [12] it was 62.8 µM. Besides, the TGI in assay [13] is more than 100 µM; in assay [14], more than 100 µM; in assay [15], 89.5 µM; in assay [16], more than 100 µM; in assay [17] it was more than 100 µM; in [19], more than 100 µM.
As for `COc1cc(S(=O)(=O)Nc2ccc(-c3csc(N4C(=O)C(C)SC4c4cccs4)n3)cc2)ccc1Cl` (configuration not stated), the TGI in assay [1] was more than 100 µM; in assay [2], 49.4 µM; in assay [3] it was 53.1 µM; in assay [5], more than 100 µM; in assay [6], more than 100 µM; in assay [7], more than 100 µM. For the same compound, the TGI in assay [8] was more than 100 µM; in assay [9], more than 100 µM; in [18], 31.1 µM; in assay [10], more than 100 µM; in assay [11], 69 µM; in [12], more than 100 µM. Besides, the TGI in assay [13] was more than 100 µM; in [14] it was more than 100 µM; in [15], 27.3 µM; in [19], more than 100 µM.
